According to ChEMBL document CHEMBL5390265, “Design, Synthesis, and Pharmacological Evaluation of Multisubstituted Pyrido[4,3-d]pyrimidine Analogues Bearing Deuterated Methylene Linkers as Potent KRASG12D Inhibitors” (J Med Chem, 2023):
Active and inactive are the calls of the source. No cut-off for these calls is given here.

Tests used:
NCI-H1299 = assay: Antiproliferative activity against human NCI-H1299 cells harboring KRAS wild type assessed as inhibition of cell growth incubated for 5 days by crystal violet staining analysis; assay type: functional, cell-based; details: NCI-H1299, 120 h
ASPC1 [1] = assay: Antiproliferative activity against human ASPC1 cells harboring […] assessed as inhibition of cell growth incubated for 5 days by crystal violet staining analysis; assay type: functional, cell-based; details: Homo sapiens, ASPC1, 120 h
GTPase KRas [2] = target: T1, GTPase KRas (Homo sapiens, UniProt P01116); assay: Inhibition of recombinant human GTP-bound KRAS wild type (1 to 169 residues) incubated for 1 hr by HTRF assay
A549 = assay: Antiproliferative activity against human A549 cells harboring […] assessed as inhibition of cell growth incubated for 5 days by crystal violet staining analysis; assay type: functional, cell-based; details: Homo sapiens, A549, 120 h
AGS [3] = assay: Antiproliferative activity against human AGS cells harboring […] assessed as inhibition of cell growth incubated for 5 days by crystal violet staining analysis; assay type: functional, cell-based; details: Homo sapiens, AGS, 120 h
[4] = Inhibition of recombinant human His6-tagged KRAS4B G12D mutant incubated for 1 hr by HTRF assay
GTPase KRas [5] = target: T1, GTPase KRas; assay: Inhibition of KRAS in human AGS cells assessed as downregulation of ERK phosphorylation incubated for 3 hrs by immunoblotting analysis; assay type: cell-based; details: tested as the 2H-labelled form
GTPase KRas [6] = target: T1, GTPase KRas; assay: Inhibition of KRAS in human AGS cells assessed as downregulation of AKT phosphorylation incubated for 3 hrs by immunoblotting analysis; assay type: cell-based; details: tested as the 2H-labelled form
GTPase KRas [7] = target: T1, GTPase KRas; assay: Inhibition of KRAS in human ASPC1 cells assessed as downregulation of AKT phosphorylation incubated for 3 hrs by immunoblotting analysis; assay type: cell-based; details: tested as the 2H-labelled form
ASPC1 [8] = assay: Antitumor activity against human ASPC1 cells xenografted in mouse assessed as inhibition of Ki-67 expression level at 20 mg/kg,ip administrated twice daily for 20 consecutive days by immunohistochemistry analysis; assay type: functional, organism-based; details: tested as the 2H-labelled form
GTPase KRas [9] = target: T1, GTPase KRas; assay: Inhibition of KRAS in human ASPC1 cells assessed as downregulation of AKT phosphorylation at 0.65 nM incubated for 3 hrs by immunoblotting analysis; assay type: cell-based; details: tested as the 2H-labelled form
GTPase KRas [10] = target: T1, GTPase KRas; assay: Inhibition of KRAS in human ASPC1 cells assessed as downregulation of ERK phosphorylation at 0.65 nM incubated for 3 hrs by immunoblotting analysis; assay type: cell-based; details: tested as the 2H-labelled form
GTPase KRas [11] = target: T1, GTPase KRas; assay: Inhibition of KRAS in human AGS cells assessed as downregulation of AKT phosphorylation at 0.65 nM incubated for 3 hrs by immunoblotting analysis; assay type: cell-based; details: tested as the 2H-labelled form
ASPC1 [12] = assay: Antitumor activity against human ASPC1 cells xenografted in mouse assessed as inhibition of ERK phosphorylation level at 20 mg/kg,ip administrated twice daily for 20 consecutive days by immunoblotting analysis; assay type: functional, organism-based; details: tested as the 2H-labelled form
ASPC1 [13] = assay: Antitumor activity against human ASPC1 cells xenografted in mouse assessed as inhibition of AKT phosphorylation level at 20 mg/kg,ip administrated twice daily for 20 consecutive days by immunoblotting analysis; assay type: functional, organism-based; details: tested as the 2H-labelled form
ASPC1 [14] = assay: Antitumor activity against human ASPC1 cells xenografted in mouse assessed as inhibition of AKT phosphorylation level at 10 mg/kg,ip administrated twice daily for 20 consecutive days by immunoblotting analysis; assay type: functional, organism-based; details: tested as the 2H-labelled form
ASPC1 [15] = assay: Antitumor activity against human ASPC1 cells xenografted in mouse assessed as inhibition of ERK phosphorylation level at 10 mg/kg,ip administrated twice daily for 20 consecutive days by immunoblotting analysis; assay type: functional, organism-based; details: tested as the 2H-labelled form
GTPase KRas [16] = target: T1, GTPase KRas; assay: Inhibition of KRAS in human ASPC1 cells assessed as downregulation of ERK phosphorylation at 6.25 to 100 nM incubated for 3 hrs by immunoblotting analysis; assay type: cell-based; details: dose 6.25-100 nM, tested as the 2H-labelled form
GTPase KRas [17] = target: T1, GTPase KRas; assay: Inhibition of KRAS in human ASPC1 cells assessed as downregulation of ERK phosphorylation incubated for 3 hrs by immunoblotting analysis; assay type: cell-based; details: tested as the 2H-labelled form
GTPase KRas [18] = target: T1, GTPase KRas; assay: Inhibition of KRAS in human AGS cells assessed as downregulation of ERK phosphorylation at 0.65 nM incubated for 3 hrs by immunoblotting analysis; assay type: cell-based; details: tested as the 2H-labelled form
ASPC1 [19] = assay: Antitumor activity against human ASPC1 cells xenografted in mouse assessed as inhibition of Ki-67 expression level at 10 mg/kg,ip administrated twice daily for 20 consecutive days by immunohistochemistry analysis; assay type: functional, organism-based; details: tested as the 2H-labelled form
[20] = Toxicity in mouse xenografted with human ASPC1 cells assessed as serum creatinine level at 20 mg/kg,ip administrated twice daily for 20 consecutive days (reference value: 28.2 +/- 2.1 umol/L); assay type: organism-based; details: in vivo
[21] = Metabolic stability in monkey liver microsomes assessed as half life at 150 uM measured after 60 mins in presence of NADPH by LC-MS/MS analysis; assay type: ADME, Macaca mulatta, Microsome; details: rhesus monkey
[22] = Metabolic stability in rat liver microsomes assessed as half life at 150 uM measured after 60 mins in presence of NADPH by LC-MS/MS analysis; assay type: ADME, Microsome
AGS [23] = assay: Induction of apoptosis in human AGS cells harboring […] assessed as early apoptotic cells at 25 uM incubated for 24 hrs by annexin V and propidium iodide staining based flow cytometry analysis (reference value: 4.05%); assay type: functional
[24] = Metabolic stability in dog liver microsomes assessed as half life at 150 uM measured after 60 mins in presence of NADPH by LC-MS/MS analysis; assay type: ADME, Canis lupus familiaris, Microsome
[25] = AUC in Sprague-Dawley rat at 1 mg/kg,iv measured upto 24 hrs by LC-MS/MS analysis; assay type: ADME, organism-based; parameters: dose 1 mg/kg, time < 24 hrs, route iv; details: in vivo
ASPC1 [26] = assay: Antitumor activity against human ASPC1 cells xenografted in mouse assessed as inhibition of tumor growth at 20 mg/kg,ip administrated twice daily for 20 consecutive days relative to control; assay type: functional; details: read-out: TGI
ASPC1 [27] = assay: Induction of apoptosis in human ASPC1 cells harboring […] assessed as early apoptotic cells at 25 uM incubated for 24 hrs by annexin V and propidium iodide staining based flow cytometry analysis (reference value: 5.22%); assay type: functional
[28] = Half life in Sprague-Dawley rat at 1 mg/kg,iv measured upto 24 hrs by LC-MS/MS analysis; assay type: ADME, organism-based; details: in vivo
[29] = Metabolic stability in dog liver microsomes assessed as intrinsic clearance at 150 uM measured after 60 mins in presence of NADPH by LC-MS/MS analysis; assay type: ADME, Canis lupus familiaris, Microsome; details: read-out: CLH
[30] = Metabolic stability in monkey liver microsomes assessed as intrinsic clearance at 150 uM measured after 60 mins in presence of NADPH by LC-MS/MS analysis; assay type: ADME, Macaca mulatta, Microsome; details: rhesus monkey, read-out: CLH
[31] = Clearance in Sprague-Dawley rat at 1 mg/kg,iv measured upto 24 hrs by LC-MS/MS analysis; assay type: ADME, organism-based; details: in vivo
ASPC1 [32] = assay: Induction of apoptosis in human ASPC1 cells harboring […] assessed as late apoptotic cells at 25 uM incubated for 24 hrs by annexin V and propidium iodide staining based flow cytometry analysis (reference value: 6.96%); assay type: functional
[33] = Metabolic stability in rat liver microsomes assessed as intrinsic clearance at 150 uM measured after 60 mins in presence of NADPH by LC-MS/MS analysis; assay type: ADME, Microsome; details: read-out: CLH
AGS [34] = assay: Induction of apoptosis in human AGS cells harboring […] assessed as late apoptotic cells at 25 uM incubated for 24 hrs by annexin V and propidium iodide staining based flow cytometry analysis (reference value: 7.74%); assay type: functional
[35] = Toxicity in mouse xenografted with human ASPC1 cells assessed as serum blood urea nitrogen level at 20 mg/kg,ip administrated twice daily for 20 consecutive days (reference value: 16.3 +/- 1.6 mmol/L); assay type: organism-based; details: in vivo

Compound	IC50 (NCI-H1299)	IC50 (ASPC1 [1])	IC50 (A549)	IC50 (AGS [3])	IC50 [4]	inhibition (GTPase KRas [5])	inhibition (GTPase KRas [6])	inhibition (GTPase KRas [7])	Activity (ASPC1 [8])	Activity (ASPC1 [12])	Activity (ASPC1 [13])	Activity (ASPC1 [14])	Activity (ASPC1 [15])	inhibition (GTPase KRas [17])	Activity (ASPC1 [19])	other results
[2H]C([2H])(Oc1nc(N2C[C@H]3CC[C@@H](C2)N3)c2cnc(-c3cccc4ccc(F)c(C#C)c34)c(F)c2n1)C12CCCN1CC(=C(F)F)C2 (stereo partly specified)	1.41 µM	0.0237 µM	1.09 µM	0.0225 µM	0.00221 µM											IC50 (GTPase KRas [2]): 0.0203 µM
C#Cc1c(F)ccc2cc(N)cc(-c3ncc4c(N5C[C@H]6CC[C@@H](C5)N6)nc(OCC56CCCN5CC(=C(F)F)C6)nc4c3F)c12 (stereo partly specified)						Dose-Dependent Effect	Dose-Dependent Effect	Dose-Dependent Effect	Active	Active	Active	Active	Active	Dose-Dependent Effect	Active	inhibition (GTPase KRas [9]): Active; inhibition (GTPase KRas [10]): Active; inhibition (GTPase KRas [11]): Active; inhibition (GTPase KRas [16]): > 90%; inhibition (GTPase KRas [18]): Active
C#Cc1c(F)ccc2cc(O)cc(-c3ncc4c(N5C[C@H]6CC[C@@H](C5)N6)nc(OC[C@@]56CCCN5C[C@H](F)C6)nc4c3F)c12	> 5 µM	0.0079 µM	> 5 µM	0.0014 µM	0.00124 µM											Activity [20]: 24.7 µmol/L; half-life at 150 µM [21]: 0.568 h; half-life at 150 µM [22]: 2.88 h; Activity (AGS [23]): 9.27%; half-life at 150 µM [24]: 1.38 h; AUC at 24 h [25]: 188 ng·h/mL; inhibition in vivo at 20 mg/kg (ASPC1 [26]): 73.3%; Activity (ASPC1 [27]): 8.65%; half-life [28]: 1.1 h; microsomal CLint at 150 µM [29]: 16.8 µL/min/mg; microsomal CLint at 150 µM [30]: 40.6 µL/min/mg; clearance [31]: 91.7 mL/min/kg; Activity (ASPC1 [32]): 12.1%; microsomal CLint at 150 µM [33]: 8 µL/min/mg; Activity (AGS [34]): 10.4%; Activity [35]: 14 mmol/L
C#Cc1c(F)ccc2cccc(-c3ncc4c(N5C[C@H]6CC[C@@H](C5)N6)nc(OCC56CCCN5CC(=C(F)F)C6)nc4c3F)c12 (stereo partly specified)						Dose-Dependent Effect	Dose-Dependent Effect	Dose-Dependent Effect						Dose-Dependent Effect		
C#Cc1c(F)ccc2cc(O)cc(-c3ncc4c(NCC5(N(C)C)CCC5)nc(OCC56CCCN5CC(=C(F)F)C6)nc4c3F)c12 (stereo unspecified)						Dose-Dependent Effect	Dose-Dependent Effect	Dose-Dependent Effect	Active	Active	Active	Active	Active	Dose-Dependent Effect	Active	
